Laboratory results published in publication PMC7997411, “Discovery and Optimization of Selective Inhibitors of Meprin α (Part II)” (Pharmaceuticals, 2021).
Several values for one entry are separate records, joined by “and”; a condition that tells them apart may be missing. Identical values can stand only once. Like-named read-outs stand apart in the source and are kept apart here.

Key:
ADAM17 = biological target: T1, ADAM17 (Homo sapiens, UniProt P78536); conditions: cited from earlier work
T1 construct: purchased R&D Systems 930-ADB

Meprin α [1] = conditions: cited from earlier work; for meprin α/β fold selectivity ratio: meprin α over meprin β ref 8
MMP9 = biological target: T2, MMP9 (Homo sapiens, UniProt P14780); conditions: cited from earlier work
T2 construct: purchased R&D Systems 911-MP

MMP2 = biological target: T3, MMP2 (Homo sapiens, UniProt P08253); conditions: cited from earlier work
T3 construct: purchased R&D Systems 902-MP
T3 sequence (P08253 110-660): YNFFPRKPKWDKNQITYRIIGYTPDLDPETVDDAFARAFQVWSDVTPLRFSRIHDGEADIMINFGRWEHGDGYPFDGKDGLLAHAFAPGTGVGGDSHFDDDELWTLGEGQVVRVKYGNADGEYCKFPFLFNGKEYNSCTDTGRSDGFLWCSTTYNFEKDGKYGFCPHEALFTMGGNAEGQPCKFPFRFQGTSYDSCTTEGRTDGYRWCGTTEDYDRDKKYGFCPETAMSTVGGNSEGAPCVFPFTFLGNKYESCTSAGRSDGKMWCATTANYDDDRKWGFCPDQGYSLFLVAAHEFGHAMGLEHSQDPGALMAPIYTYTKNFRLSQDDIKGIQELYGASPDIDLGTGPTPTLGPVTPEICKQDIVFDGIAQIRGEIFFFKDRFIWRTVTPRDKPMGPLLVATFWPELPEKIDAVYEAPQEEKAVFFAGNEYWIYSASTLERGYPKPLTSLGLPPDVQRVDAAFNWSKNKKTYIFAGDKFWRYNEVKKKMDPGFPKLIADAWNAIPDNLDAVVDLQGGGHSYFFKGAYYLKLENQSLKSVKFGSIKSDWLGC

Meprin β = conditions: cited from earlier work
ADAM10 = biological target: T4, ADAM10 (Homo sapiens, UniProt O14672); conditions: cited from earlier work
T4 construct: purchased R&D Systems 936-AD
T4 sequence (O14672 214-748): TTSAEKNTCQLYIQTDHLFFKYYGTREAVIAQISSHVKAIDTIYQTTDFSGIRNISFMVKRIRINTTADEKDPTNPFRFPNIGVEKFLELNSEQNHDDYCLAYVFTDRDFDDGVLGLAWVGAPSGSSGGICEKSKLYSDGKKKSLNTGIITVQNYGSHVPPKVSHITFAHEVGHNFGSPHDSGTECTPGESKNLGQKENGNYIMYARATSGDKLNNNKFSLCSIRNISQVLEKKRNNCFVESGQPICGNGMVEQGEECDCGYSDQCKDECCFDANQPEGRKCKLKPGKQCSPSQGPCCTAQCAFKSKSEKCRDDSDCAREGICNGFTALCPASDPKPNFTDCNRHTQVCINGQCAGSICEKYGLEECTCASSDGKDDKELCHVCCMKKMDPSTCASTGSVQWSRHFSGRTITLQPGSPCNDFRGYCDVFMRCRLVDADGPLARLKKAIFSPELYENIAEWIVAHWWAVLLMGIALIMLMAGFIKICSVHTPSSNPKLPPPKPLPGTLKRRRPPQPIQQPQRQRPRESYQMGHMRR

MMP13 = biological target: T5, MMP13 (Homo sapiens, UniProt P45452); conditions: cited from earlier work
T5 construct: purchased R&D Systems 511-MM

human meprin β = biological target: T6, human meprin β (Homo sapiens, UniProt Q16820); assay: Meprin β assay in a 384-well plate (fluorogenic substrate Mca-EDEDED-K(Dnp)); format: biochemical; conditions: triplicate, ± SD
T6 construct: His-tag; made in house; host or cells: BTI-TN-5B1-4 insect cells (baculovirus, amplified in Sf9)
T6 sequence (Q16820 62-701): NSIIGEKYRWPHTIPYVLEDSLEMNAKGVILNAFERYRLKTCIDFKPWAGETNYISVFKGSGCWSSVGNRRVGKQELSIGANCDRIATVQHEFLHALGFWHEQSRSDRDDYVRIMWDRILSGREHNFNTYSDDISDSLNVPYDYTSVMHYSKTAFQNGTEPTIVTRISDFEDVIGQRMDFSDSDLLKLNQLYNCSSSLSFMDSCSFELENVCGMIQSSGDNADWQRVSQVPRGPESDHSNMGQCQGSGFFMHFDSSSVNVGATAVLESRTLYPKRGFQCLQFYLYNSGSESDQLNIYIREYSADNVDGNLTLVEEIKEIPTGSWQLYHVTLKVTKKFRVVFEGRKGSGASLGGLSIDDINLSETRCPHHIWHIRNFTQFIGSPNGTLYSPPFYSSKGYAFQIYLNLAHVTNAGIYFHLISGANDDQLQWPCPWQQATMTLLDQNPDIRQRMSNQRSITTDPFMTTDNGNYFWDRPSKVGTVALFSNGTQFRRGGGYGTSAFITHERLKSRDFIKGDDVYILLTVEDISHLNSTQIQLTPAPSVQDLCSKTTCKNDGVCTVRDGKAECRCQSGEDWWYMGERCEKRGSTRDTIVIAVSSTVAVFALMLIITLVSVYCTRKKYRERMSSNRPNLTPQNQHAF
Description: (§1) Recombinant human meprin α and meprin β were expressed using the Bac-to-Bac expression system (Gibco Life Technologies, Paisley, UK) as described before. Media and supplements were obtained from Gibco Life Technologies. Recombinant Baculoviruses were amplified in adherently growing Spodoptera frugiperda (Sf)9 insect cells at 27 °C in Grace’s insect medium supplemented with 10% fetal bovine serum, 50 units/mL penicillin, and 50 μg/mL streptomycin. Protein expression was performed in 500 mL suspension cultures of BTI-TN-5B1-4 insect cells growing in Express Five SFM supplemented with 4 mM glutamine, 50 units/mL penicillin, and 50 μg/mL streptomycin in Fernbach-flasks using a Multitron orbital shaker (INFORS AG, Bottmingen, Switzerland). Cells were infected at a density of 2 × 10^6 cells/mL with an amplified viral stock at a MOI of ~10. […] Meprins were activated by trypsin, which was removed afterwards by affinity chromatography using a column containing immobilized chicken ovomucoid, a trypsin inhibitor.
(§2) Both assays followed the same general protocol. […] After 30 min incubation at RT, the reactions were started by addition of 5 µL of 2× solutions of substrates (20 µM, meprin α Mca-YVADAPK-K(Dnp), and for meprin β Mca-EDEDED-K(Dnp)).

[2] = system: MMP-2, MMP-3, MMP-8, MMP-9, MMP-10, MMP-14, ADAM10, and ADAM17; assay: Selectivity panel of related metzincins; format: biochemical; conditions: meprin α vs MMP-2, MMP-3, MMP-8, MMP-9, MMP-10, MMP-14, ADAM10, ADAM17
Description: Both assays followed the same general protocol. 2.5 µL of 2× enzyme solution (20 nM) in assay buffer (10 mM HEPES, 0.001% Brij-35, pH 7.5) were added to solid bottom black 384 plates (Greiner, cat# 789075). Next, test compounds and pharmacological controls were added to corresponding wells using a 384-pin tool device (V&P Scientific, San Diego). After 30 min incubation at RT, the reactions were started by addition of 2.5 µL of 2× solutions of substrate (R&D Systems cat#: ES010, Mca-KPLGL-Dpa-AR-NH2, 20 µM). Reactions were incubated at RT for 2 h, after which the fluorescence was measured using a Perkin Elmer Viewlux multimode microplate imager (λexcitation = 324 nm, λemission = 393 nm). All compounds were tested in 10-point, 1:3 serial dilutions dose-response format starting with highest concentration of 100 µM. IC50 values were determined using non-linear regression analysis using the GraphPad Prism 8.0 suite of programs.
All assays followed the same general protocol. […] Reactions were incubated at RT for 1 h, after which the fluorescence was measured using the Synergy H4 multimode microplate reader (Biotek Instruments) (λexcitation = 324 nm, λemission = 390 nm). […] IC50 values were determined using non-linear regression analysis using the GraphPad Prism 8.0 suite of programs.

meprin α [3] = biological target: T7, meprin α (Homo sapiens, UniProt Q16819); assay: Meprin α assay in a 384-well plate (fluorogenic substrate Mca-YVADAPK-K(Dnp)); format: biochemical
T7 construct: Strep-tag; made in house; host or cells: BTI-TN-5B1-4 insect cells (baculovirus, amplified in Sf9)
T7 sequence (Q16819 66-746): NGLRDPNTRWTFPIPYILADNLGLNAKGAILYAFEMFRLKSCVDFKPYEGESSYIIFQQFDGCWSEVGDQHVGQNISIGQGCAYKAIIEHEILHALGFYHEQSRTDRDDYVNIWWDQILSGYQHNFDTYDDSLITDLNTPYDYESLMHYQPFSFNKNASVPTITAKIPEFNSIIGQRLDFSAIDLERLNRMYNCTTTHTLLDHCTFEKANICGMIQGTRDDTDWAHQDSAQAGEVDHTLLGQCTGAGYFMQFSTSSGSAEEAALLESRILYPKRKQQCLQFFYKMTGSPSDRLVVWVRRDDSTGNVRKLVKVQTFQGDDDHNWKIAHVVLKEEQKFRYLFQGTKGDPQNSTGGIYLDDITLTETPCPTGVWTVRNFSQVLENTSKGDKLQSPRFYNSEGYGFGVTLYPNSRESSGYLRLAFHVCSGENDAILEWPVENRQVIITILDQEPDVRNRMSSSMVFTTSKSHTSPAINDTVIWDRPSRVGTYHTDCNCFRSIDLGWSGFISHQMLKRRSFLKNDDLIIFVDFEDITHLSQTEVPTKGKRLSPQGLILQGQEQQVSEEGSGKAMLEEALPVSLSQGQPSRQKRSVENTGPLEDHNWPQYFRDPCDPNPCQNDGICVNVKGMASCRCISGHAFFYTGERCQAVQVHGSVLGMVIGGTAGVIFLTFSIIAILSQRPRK
Description: as §1, §2

[4] = single value given, at 10 μM ref 11

T1 sequence (P78536 215-824): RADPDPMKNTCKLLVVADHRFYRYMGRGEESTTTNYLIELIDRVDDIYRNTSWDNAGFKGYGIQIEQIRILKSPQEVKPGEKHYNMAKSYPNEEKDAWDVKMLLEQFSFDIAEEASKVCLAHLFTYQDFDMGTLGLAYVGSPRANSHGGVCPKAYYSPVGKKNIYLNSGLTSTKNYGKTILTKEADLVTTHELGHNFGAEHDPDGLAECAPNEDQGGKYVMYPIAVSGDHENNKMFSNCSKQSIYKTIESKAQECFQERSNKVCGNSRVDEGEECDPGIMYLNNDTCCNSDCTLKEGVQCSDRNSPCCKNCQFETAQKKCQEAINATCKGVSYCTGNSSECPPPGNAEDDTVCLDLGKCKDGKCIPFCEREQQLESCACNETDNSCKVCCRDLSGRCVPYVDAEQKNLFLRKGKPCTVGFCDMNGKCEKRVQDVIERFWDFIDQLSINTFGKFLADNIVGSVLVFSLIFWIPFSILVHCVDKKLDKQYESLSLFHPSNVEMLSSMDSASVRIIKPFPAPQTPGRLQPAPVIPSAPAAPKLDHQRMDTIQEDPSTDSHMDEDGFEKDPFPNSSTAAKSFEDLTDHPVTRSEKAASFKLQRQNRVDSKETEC
T2 sequence (P14780 94-707): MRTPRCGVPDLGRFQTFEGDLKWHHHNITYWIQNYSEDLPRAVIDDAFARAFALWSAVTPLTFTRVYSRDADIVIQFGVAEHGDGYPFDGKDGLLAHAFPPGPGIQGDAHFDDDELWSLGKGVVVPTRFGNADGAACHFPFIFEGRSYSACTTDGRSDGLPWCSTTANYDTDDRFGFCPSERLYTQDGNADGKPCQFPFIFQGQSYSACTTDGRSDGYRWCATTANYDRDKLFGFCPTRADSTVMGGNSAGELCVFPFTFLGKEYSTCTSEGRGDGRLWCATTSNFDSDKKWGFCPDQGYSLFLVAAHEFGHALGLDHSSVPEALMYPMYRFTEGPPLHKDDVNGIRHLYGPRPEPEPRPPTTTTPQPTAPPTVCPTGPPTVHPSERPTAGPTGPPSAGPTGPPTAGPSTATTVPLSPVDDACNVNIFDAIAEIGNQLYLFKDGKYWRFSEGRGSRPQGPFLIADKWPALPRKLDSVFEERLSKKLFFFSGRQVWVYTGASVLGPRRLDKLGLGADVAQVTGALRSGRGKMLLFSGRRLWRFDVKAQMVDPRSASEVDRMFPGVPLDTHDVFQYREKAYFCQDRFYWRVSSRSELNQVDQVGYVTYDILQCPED

| Structure (SMILES) | IC50 (Meprin α [1]) [nM] | IC50 (Meprin β) [nM] | ADAM17 % activity remaining (ADAM17; at 10 μM (top) ref 8) [%] | ADAM17 % activity remaining (ADAM17; at 200 μM (bottom) ref 8) [%] | meprin α/β fold selectivity ratio (Meprin α [1]) [fold] | MMP9 % activity remaining (MMP9; at 10 μM (top) ref 8) [%] | MMP9 % activity remaining (MMP9; at 200 μM (bottom) ref 8) [%] | MMP2 % activity remaining (MMP2; at 10 μM (top) ref 8) [%] | MMP2 % activity remaining (MMP2; at 200 μM (bottom) ref 8) [%] | ADAM10 % activity remaining (ADAM10; at 10 μM (top) ref 8) [%] | ADAM10 % activity remaining (ADAM10; at 200 μM (bottom) ref 8) [%] | MMP13 % activity remaining (MMP13; at 10 μM (top) ref 8) [%] | MMP13 % activity remaining (MMP13; at 200 μM (bottom) ref 8) [%] | also measured |
| --- | --- | --- | --- | --- | --- | --- | --- | --- | --- | --- | --- | --- | --- | --- |
| O=C(Cc1c(-c2ccccc2)n[nH]c1-c1ccccc1)NO [2e] | 3 ± 1 | 199 ± 1 |  |  |  |  |  |  |  |  |  |  |  | ADAM17 % activity remaining (ADAM17; [4]): 61%; MMP9 % activity remaining (MMP9; [4]): 81%; MMP2 % activity remaining (MMP2; [4]): 104%; ADAM10 % activity remaining (ADAM10; [4]): 73%; MMP13 % activity remaining (MMP13; [4]): 75% |
| O=C(CN(Cc1ccc2c(c1)OCO2)Cc1ccc2c(c1)OCO2)NO [10d] | 160 ± 1 | 2950 ± 350 | 86 | 57 | 18 | 91 | 61 | 95 | 26 | 86 | 61 | 86 | 55 |  |
| O=C(CN(Cc1ccc2c(c1)OCCO2)Cc1ccc2c(c1)OCCO2)NO [10e] | 400 ± 30 | 7590 ± 10 | 80 | 41 | 19 | 91 | 21 | 94 | 65 | 80 | 56 | 98 | 47 |  |
| COc1ccc(-n2c(CSc3ncccn3)nnc2SCC(=O)NO)cc1 [SR19855, N-hydroxy-2-((4-(4-methoxyphenyl)-5-((pyrimidin-2-ylthio)methyl)-4H-1,2,4-triazol-3-yl)thio)acetamide] |  |  |  |  |  |  |  |  |  |  |  |  |  | IC50 (human meprin β): 17000 ± 3000 nM; selectivity over a larger panel of metzincins [2]: at least 10 fold; meprin α/β selectivity (in words) (meprin α [3]; Figure 1): moderate meprin α/β selectivity; meprin α/β fold selectivity (ratio of IC50 values) (meprin α [3]; meprin α over meprin β): ~ 13 fold and 13 fold; IC50 (meprin α [3]; triplicate, ± SD): 1300 ± 100 nM; Meprin α IC50 (meprin α [3]; triplicate, ± SD): low-micromolar |
